Measurements published in ChEMBL document CHEMBL1131515, “2-Substituted-4-methoxybenzimidazole-based PDE4 inhibitors” (Bioorg Med Chem Lett, 1998).

Legend:
[1] = Inhibition of Rolipram binding to PDE4
[2] = molecular target: Phosphodiesterase 4 (Cavia porcellus); assay: Inhibition of PDE4 from guinea pig macrophages
[3] = Bioavailability in mouse; assay type: ADME, organism-based; details: in vivo
Mus musculus = species on record: Mus musculus; assay: Inhibition of lipopolysaccharide (LPS) stimulated TNF-alpha release in mice after peroral dose; assay type: functional; details: po
Rattus norvegicus [4] = species on record: Rattus norvegicus; assay: Inhibition of streptococcal cell wall(SCW) induced arthritis in rat; assay type: functional
[5] = molecular target: Phosphodiesterase 4 (Cavia porcellus); assay: Inhibition of Phosphodiesterase 4 (PDE4) from guinea pig macrophages
[6] = Compound was evaluated for its bioavailability in mice at a dose of 1 mg/kg; assay type: ADME, organism-based; details: mouse, in vivo
[7] = Rapid plasma clearance of compound was determined; assay type: ADME
Rattus norvegicus [8] = species on record: Rattus norvegicus; assay: Inhibition of streptococcal cell wall(SCW) induced arthritis in rat on peroral dose; assay type: functional; details: po
Phosphodiesterase 4 = Phosphodiesterase 4 (Homo sapiens, UniProt P27815+Q08499+Q07343+Q08493); assay: Inhibition of Phosphodiesterase 4 (PDE4) from guinea pig macrophages; assay type: protein assay, Cavia porcellus; details: target entry is the homologue from another species

| Compound | Ki [1] [nM] | IC50 [2] [nM] | other results |
| --- | --- | --- | --- |
| COc1ccc(C(=O)Nc2c(Cl)cncc2Cl)c2nc(C3CCCC3)n(C)c12 | 10000 | 4400 | – |
| COc1ccc(C(=O)Nc2c(Cl)cncc2Cl)c2[nH]c(C3CCCC3)nc12 | 540 | 100 | – |
| COc1ccc(C(=O)Nc2c(Cl)cncc2Cl)c2c1nc(C1CCCC1)n2C | 340 | 540 | – |
| COc1ccc(C(=O)Nc2c(Cl)cncc2Cl)c2[nH]c(CCc3ccccc3)nc12 | 56 | 23 | – |
| COc1ccc(C(=O)Nc2c(Cl)cncc2Cl)cc1OC1CCCC1 | 1 | – | bioavailability [3]: < 5% |
| COCc1nc2c(OC)ccc(C(=O)Nc3c(Cl)cncc3Cl)c2[nH]1 | 25 | – | bioavailability [3]: 35%; ED50 (Mus musculus): 2 mg/kg; ED50 (Rattus norvegicus [4]): 10 mg/kg |
| COc1ccc(C(=O)Nc2c(Cl)cncc2Cl)c2[nH]c(Cc3ccccc3)nc12 | 75 | 25 | – |
| COc1ccc(C(=O)Nc2c(Cl)cncc2Cl)c2[nH]c(C3CC3)nc12 | 1 | 2 | – |
| OCCN(CCO)c1nc(N2CCCCC2)c2nc(N(CCO)CCO)nc(N3CCCCC3)c2n1 [DIPYRIDAMOLE] | – | – | IC50 (Phosphodiesterase 4): 500 nM |

Continued, in another order:

| Ki [1] [nM] | IC50 [2] [nM] | Compound | other results |
| --- | --- | --- | --- |
| 24 | 27 | COc1ccc(C(=O)Nc2c(Cl)cncc2Cl)c2[nH]c(C(C)C)nc12 | bioavailability [3]: 16%; ED50 (Mus musculus): 10 mg/kg |
| 712 | 450 | COc1ccc(C(=O)Nc2c(Cl)cncc2Cl)c2[nH]c(C)nc12 | – |
| 24 | – | COc1ccc(C(=O)Nc2c(Cl)c[n+]([O-])cc2Cl)c2[nH]c(C(C)C)nc12 | IC50 [5]: 28 nM |
| 45 | – | COCc1nc2c(OC)ccc(C(=O)Nc3c(Cl)c[n+]([O-])cc3Cl)c2[nH]1 | bioavailability [6]: 87%; half-life [7]: 2.5 h; ED50 (Mus musculus): 7 mg/kg; ED50 (Rattus norvegicus [8]): 5 mg/kg; IC50 [5]: 45 nM |
